From ChEMBL document CHEMBL4049443, “Discovery of 2-[[2-Ethyl-6-[4-[2-(3-hydroxyazetidin-1-yl)-2-oxoethyl]piperazin-1-yl]-8-methylimidazo[1,2-a]pyridin-3-yl]methylamino]-4-(4-fluorophenyl)thiazole-5-carbonitrile (GLPG1690), a First-in-Class Autotaxin Inhibitor Undergoing Clinical Evaluation for the Treatment of Idiopathic Pulmonary …” (J Med Chem, 2017)

Columns and labels:
Cytochrome P450 3A4 = Cytochrome P450 3A4 (Homo sapiens, UniProt P08684); assay: Time-dependent inhibition of human liver microsomes CYP3A4; format: ADME
Autotaxin = Autotaxin (Homo sapiens, UniProt Q13822); assay: Inhibition of human ATX using LPC (16:0) as substrate after 30 mins by horseradish peroxidase/choline oxidase coupled enzyme based spectrophotometric analysis

Chain of Cytochrome P450 3A4 (P08684 whole entry): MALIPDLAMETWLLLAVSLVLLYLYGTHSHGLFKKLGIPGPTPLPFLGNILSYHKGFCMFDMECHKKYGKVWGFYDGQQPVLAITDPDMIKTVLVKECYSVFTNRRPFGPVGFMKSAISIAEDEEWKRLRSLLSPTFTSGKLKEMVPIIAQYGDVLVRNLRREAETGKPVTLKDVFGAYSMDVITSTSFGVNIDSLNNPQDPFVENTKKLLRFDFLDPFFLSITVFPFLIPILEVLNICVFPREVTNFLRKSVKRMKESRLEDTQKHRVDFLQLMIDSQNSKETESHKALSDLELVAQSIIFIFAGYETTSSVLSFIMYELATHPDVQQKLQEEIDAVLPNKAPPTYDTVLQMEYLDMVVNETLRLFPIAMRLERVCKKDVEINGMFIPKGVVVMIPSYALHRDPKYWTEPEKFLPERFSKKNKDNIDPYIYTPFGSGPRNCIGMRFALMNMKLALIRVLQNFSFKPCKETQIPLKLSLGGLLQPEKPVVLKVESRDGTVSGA

TDI (Cytochrome P450 3A4): Active
IC50 (Autotaxin): 246 nM
SMILES: CCc1nc2ccc(C3CCN(CC(=O)N4CC(O)C4)CC3)cn2c1N(C)c1nc(-c2ccc(F)cc2)cs1
